Earlier results on one molecule are cited in patent publication US12357624B2, “Low dose pridopidine for Parkinson's Disease and other diseases associated with parkinsonism” (PRILENIA NEUROTHERAPEUTICS LTD., priority 2019, dated 2025).

The subject of the series is B104 neuroblastoma cell line. As to conditions: NE100 1 μM co-incubated with pridopidine; cited from earlier work.

`CCCN(CCC)CCc1ccc(OC)c(OCCc2ccccc2)c1` [NE100, reference compound]: the BDNF secretion result is recorded as “BDNF secretion was inhibited”.
